According to patent US20250170072A1, “NOVEL COMPOSITIONS FOR REDUCING METHANE PRODUCTION IN RUMINANT ANIMALS” (FUTUREFEED PTY LTD, priority 2022, published 2025):
Where two headings read alike, the source gives them in different places.

What was measured:
Bromoform in water = format: physicochemical; settings: deionised water
Protocol: Manufactured synthetic CHBr3, 98% purity, and stabilized with 2-methyl-2-butene (Sigma-Aldrich, product no: 241032) was used for the preparation of the four excipients. The Corn Oil, Molasses and Water were made with similar protocols as per the Canola Oil in Example 4. Briefly, CHBr3 was dissolved and homogenised into either retail corn oil, molasses, or deionised water and homogenised by repeated inversion and left to stabilise overnight prior to achieve a concentration of 3.0±0.10 mg/g. Cyclodextrin was prepared as described previously (patent WO 96/14062, PCT AU95/00733). Briefly, CHBr3 was added to α-cyclodextrin (Sigma-Aldrich, product no: 779008) aqueous solution and mixed overnight. The solid was then separated, washed, then dried. The CHBr3 concentration of the dried powder was determined and then diluted with additional α-cyclodextrin to adjust the CHBr3 concentration to 3.0±0.10 mg/g. TGP, CH4, H2 and CO2 production, IVDDM, and VFA were determined using the protocol as described in Example 4.

rumen fluid = settings: formulated in DMSO, cited from earlier work
in vitro fermentation = settings: doses of 0.25, 1 and 1.5% of feed dry matter; cited from earlier work
[1] = at 20 degrees; cited from earlier work

## BrC(Br)Br [bromoform, tribromomethane]
Bromoform in water
  concentration of bromoform prepared in water: 3.0±0.10 mg bromoform per gram deionised water
Rumen fluid; 1 μM
  methane production in in vitro fermentation: does not significantly inhibit
Rumen fluid; doses of 5 μM, 10 μM and 25 μM
  methane production in in vitro fermentation: significantly inhibits
In vitro fermentation
  methane production: no effect
[1]
  solubility in water: less than 0.1 g bromofrm per 100 g water
